PubChem BioAssay (NCI)
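In this assay, cells in 96-well plates receive the compound at five concentrations for 48 hours. Endpoints are linearly interpolated between the surrounding concentrations. The concentration for 50% growth inhibition is given as GI50. TGI: total growth inhibition.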

Assays:
Test in all cases: NCI-60 cell line screen, 48 h
SK-MEL-2 melanoma = system: SK-MEL-2 melanoma
UACC-62 melanoma = system: UACC-62 melanoma
SK-MEL-5 melanoma = system: SK-MEL-5 melanoma
U251 CNS = system: U251 CNS
UACC-257 melanoma = system: UACC-257 melanoma
OVCAR-8 ovarian = system: OVCAR-8 ovarian
CAKI-1 renal = system: CAKI-1 renal
OVCAR-3 ovarian = system: OVCAR-3 ovarian
COLO 205 colon = system: COLO 205 colon
SF-295 CNS = system: SF-295 CNS

Structure (SMILES): CC(C)(C)OC(=O)N1C(OP(=O)(Oc2ccccc2)Oc2ccccc2)=CSc2ccccc21
- TGI (SK-MEL-2 melanoma): 43.7 µM
- TGI (UACC-62 melanoma): > 100 µM
- TGI (SK-MEL-5 melanoma): > 100 µM
- TGI (U251 CNS): > 100 µM
- TGI (UACC-257 melanoma): > 100 µM
- TGI (OVCAR-8 ovarian): > 100 µM
- TGI (CAKI-1 renal): 92.3 µM
- TGI (OVCAR-3 ovarian): > 100 µM
- TGI (COLO 205 colon): 49.6 µM
- TGI (SF-295 CNS): > 100 µM

Structure (SMILES): CC[C@@]1(O)C(=O)OCc2c1cc1n(c2=O)Cc2cc3ccccc3nc2-1
- GI50 (SK-MEL-2 melanoma): 0.34 µM
- TGI (SK-MEL-2 melanoma): 1.22 µM
- TGI (UACC-62 melanoma): 0.0736 µM
- TGI (SK-MEL-5 melanoma): 0.181 µM
- GI50 (U251 CNS): < 0.0129 µM
- TGI (U251 CNS): 0.769 µM
- TGI (UACC-257 melanoma): 0.592 µM
- GI50 (OVCAR-8 ovarian): 0.0246 µM
- TGI (OVCAR-8 ovarian): 0.555 µM
- TGI (CAKI-1 renal): 0.0322 µM
- GI50 (OVCAR-3 ovarian): 0.214 µM
- TGI (OVCAR-3 ovarian): 0.726 µM
- TGI (COLO 205 colon): 5.18 µM
- TGI (SF-295 CNS): 0.0698 µM

Structure (SMILES): CCN1c2cc(Br)cc3[nH]c(=O)n(c23)CCC1C (centres undefined)
- TGI (SK-MEL-2 melanoma): 31.8 µM
- TGI (UACC-62 melanoma): 24.6 µM
- TGI (SK-MEL-5 melanoma): 30 µM
- TGI (U251 CNS): 28.6 µM
- TGI (UACC-257 melanoma): 40.6 µM
- TGI (OVCAR-8 ovarian): 30.9 µM
- TGI (CAKI-1 renal): 36 µM
- TGI (OVCAR-3 ovarian): 28.9 µM
- TGI (COLO 205 colon): 31.3 µM
- TGI (SF-295 CNS): 39.6 µM

Structure (SMILES): Cc1c(/C=N/NC(=S)Nc2ccc(Cl)cc2)c(=O)n(-c2ccccc2)n1C
- TGI (SK-MEL-2 melanoma): 69 µM
- TGI (UACC-62 melanoma): > 79 µM
- TGI (SK-MEL-5 melanoma): > 31.6 µM
- TGI (U251 CNS): 30.7 µM
- TGI (UACC-257 melanoma): > 100 µM
- TGI (OVCAR-8 ovarian): > 60.6 µM
- TGI (CAKI-1 renal): > 48.3 µM
- TGI (OVCAR-3 ovarian): > 65.3 µM
- TGI (COLO 205 colon): > 100 µM
- TGI (SF-295 CNS): 44.5 µM

Structure (SMILES): O=C(NC(Cc1ccc(Br)cc1)C(=O)O)c1ccc(I)cc1 (centres undefined)
- TGI (SK-MEL-2 melanoma): > 100 µM
- TGI (UACC-62 melanoma): > 100 µM
- TGI (SK-MEL-5 melanoma): > 100 µM
- TGI (U251 CNS): > 100 µM
- TGI (UACC-257 melanoma): > 100 µM
- TGI (OVCAR-8 ovarian): > 100 µM
- TGI (CAKI-1 renal): > 100 µM
- TGI (OVCAR-3 ovarian): > 100 µM
- TGI (COLO 205 colon): > 100 µM
- TGI (SF-295 CNS): > 100 µM

Structure (SMILES): Nc1ccc(O)c2c1C(=O)c1c(N)ccc(O)c1C2=O
- TGI (SK-MEL-2 melanoma): > 100 µM
- TGI (UACC-62 melanoma): > 100 µM
- TGI (SK-MEL-5 melanoma): > 100 µM
- TGI (U251 CNS): > 100 µM
- TGI (UACC-257 melanoma): > 100 µM
- TGI (OVCAR-8 ovarian): > 100 µM
- TGI (CAKI-1 renal): > 100 µM
- TGI (OVCAR-3 ovarian): > 100 µM
- TGI (COLO 205 colon): > 100 µM
- TGI (SF-295 CNS): > 100 µM

Structure (SMILES): O=C(Oc1c(Cl)cc(C2(c3cc(Cl)c(OC(=O)c4ccccc4)c(Cl)c3)CCCCC2)cc1Cl)c1ccccc1
- TGI (SK-MEL-2 melanoma): 23.9 µM
- TGI (UACC-62 melanoma): 22.5 µM
- TGI (SK-MEL-5 melanoma): 22.9 µM
- TGI (U251 CNS): 26.8 µM
- TGI (UACC-257 melanoma): 26.1 µM
- TGI (OVCAR-8 ovarian): 34.1 µM
- TGI (CAKI-1 renal): 18.5 µM
- TGI (OVCAR-3 ovarian): 27.9 µM
- TGI (COLO 205 colon): 19.6 µM
- TGI (SF-295 CNS): 28.6 µM

Structure (SMILES): Clc1cc(Cl)c2cc3cccc[n+]3cc2c1Cl
- TGI (SK-MEL-2 melanoma): 30.1 µM
- TGI (UACC-62 melanoma): 32.7 µM
- TGI (SK-MEL-5 melanoma): 30.5 µM
- TGI (U251 CNS): 34.7 µM
- TGI (UACC-257 melanoma): 28.9 µM
- TGI (OVCAR-8 ovarian): 31 µM
- TGI (CAKI-1 renal): 21 µM
- TGI (OVCAR-3 ovarian): 26.8 µM
- TGI (COLO 205 colon): 28.1 µM
- TGI (SF-295 CNS): 39.8 µM

Structure (SMILES): OC[C@H]1NC[C@@H](O)[C@@H](O)[C@H]1O
- TGI (SK-MEL-2 melanoma): > 100 µM
- TGI (UACC-62 melanoma): > 100 µM
- TGI (SK-MEL-5 melanoma): > 100 µM
- TGI (U251 CNS): > 100 µM
- TGI (UACC-257 melanoma): > 100 µM
- TGI (OVCAR-8 ovarian): > 100 µM
- TGI (CAKI-1 renal): > 100 µM
- TGI (OVCAR-3 ovarian): > 100 µM
- TGI (COLO 205 colon): > 100 µM
- TGI (SF-295 CNS): > 100 µM

Structure (SMILES): CSc1nc(CO)c(CO)n1C
- TGI (SK-MEL-2 melanoma): > 100 µM
- TGI (UACC-62 melanoma): > 100 µM
- TGI (SK-MEL-5 melanoma): > 100 µM
- TGI (U251 CNS): > 100 µM
- TGI (UACC-257 melanoma): > 100 µM
- TGI (OVCAR-8 ovarian): > 100 µM
- TGI (CAKI-1 renal): > 100 µM
- TGI (OVCAR-3 ovarian): > 100 µM
- TGI (COLO 205 colon): > 100 µM
- TGI (SF-295 CNS): > 100 µM

Structure (SMILES): COc1cc(/C=C2\N=C(c3ccccc3)N(c3ccc(C(=O)c4ccccc4)cc3N3C(=O)/C(=C/c4ccc(O)c(OC)c4)N=C3c3ccccc3)C2=O)ccc1O
- TGI (SK-MEL-2 melanoma): 29.9 µM
- TGI (UACC-62 melanoma): 30.8 µM
- TGI (SK-MEL-5 melanoma): 20.2 µM
- TGI (U251 CNS): 37.5 µM
- TGI (UACC-257 melanoma): 39.6 µM
- TGI (OVCAR-8 ovarian): 32.5 µM
- TGI (CAKI-1 renal): 71 µM
- TGI (OVCAR-3 ovarian): 8.7 µM
- TGI (COLO 205 colon): 32.3 µM
- TGI (SF-295 CNS): 28.8 µM

Structure (SMILES): CN(Cc1cn(O)c2nc(=N)nc(N)c-2n1)c1ccc(C(=O)NC23CC4CC(CC(C4)C2)C3)cc1
- TGI (SK-MEL-2 melanoma): > 100 µM
- TGI (UACC-62 melanoma): > 100 µM
- TGI (SK-MEL-5 melanoma): > 100 µM
- TGI (U251 CNS): > 100 µM
- TGI (UACC-257 melanoma): > 100 µM
- TGI (OVCAR-8 ovarian): > 100 µM
- TGI (CAKI-1 renal): > 100 µM
- TGI (OVCAR-3 ovarian): > 100 µM
- TGI (COLO 205 colon): > 100 µM
- TGI (SF-295 CNS): > 100 µM

Structure (SMILES): C[C@@H]1C(=O)O[C@H]1[C@H](O)CO
- TGI (SK-MEL-2 melanoma): > 100 µM
- TGI (UACC-62 melanoma): > 100 µM
- TGI (SK-MEL-5 melanoma): > 100 µM
- TGI (U251 CNS): > 100 µM
- TGI (UACC-257 melanoma): > 100 µM
- TGI (OVCAR-8 ovarian): > 100 µM
- TGI (CAKI-1 renal): > 100 µM
- TGI (OVCAR-3 ovarian): > 100 µM
- TGI (COLO 205 colon): > 100 µM
- TGI (SF-295 CNS): > 100 µM

Structure (SMILES): O=C(CSCC(=O)N/N=C/c1ccccc1)N/N=C\c1ccccc1
- TGI (SK-MEL-2 melanoma): > 100 µM
- TGI (UACC-62 melanoma): > 100 µM
- TGI (SK-MEL-5 melanoma): > 100 µM
- TGI (U251 CNS): > 100 µM
- TGI (UACC-257 melanoma): > 100 µM
- TGI (OVCAR-8 ovarian): > 100 µM
- TGI (CAKI-1 renal): > 100 µM
- TGI (OVCAR-3 ovarian): > 100 µM
- TGI (COLO 205 colon): > 100 µM
- TGI (SF-295 CNS): > 100 µM

Structure (SMILES): NC(CCOCCP(=O)(O)CCC1C=CC=CC1)C(=O)O (centres undefined)
- TGI (SK-MEL-2 melanoma): > 100 µM
- TGI (UACC-62 melanoma): > 100 µM
- TGI (SK-MEL-5 melanoma): > 100 µM
- TGI (U251 CNS): > 100 µM
- TGI (UACC-257 melanoma): > 100 µM
- TGI (OVCAR-8 ovarian): > 100 µM
- TGI (CAKI-1 renal): > 100 µM
- TGI (OVCAR-3 ovarian): > 100 µM
- TGI (COLO 205 colon): > 100 µM
- TGI (SF-295 CNS): > 100 µM

Structure (SMILES): CC(=O)O[C@H]1CC[C@H]2[C@@H]3CCC4=CC(=O)C=C[C@]4(O)[C@H]3CC[C@]12C
- TGI (SK-MEL-2 melanoma): > 73.4 µM
- TGI (UACC-62 melanoma): > 90.2 µM
- TGI (SK-MEL-5 melanoma): 23.4 µM
- TGI (U251 CNS): > 100 µM
- TGI (UACC-257 melanoma): > 81.9 µM
- TGI (OVCAR-8 ovarian): > 86 µM
- TGI (CAKI-1 renal): > 100 µM
- TGI (OVCAR-3 ovarian): > 100 µM
- TGI (COLO 205 colon): > 55.6 µM
- TGI (SF-295 CNS): > 100 µM
